Publication PMC6838199 (Scientific Reports, 2019)

Legend:
Assay in all cases: E1-E2 transthioesterification assay (UbcH5a, Coomassie gel), recombinant purified E1
Type in all cases: biochemical
TbUBA1a [1] = target: T1, TbUBA1a (Trypanosoma brucei, UniProt Q57XC5)
T1 construct: gene Tb08.26A17.680; GST fusion cleaved with HRV 3C

[2] = target: T2, human UBA1 (hUBA1), ubiquitin E1 activating enzyme (Homo sapiens, UniProt P22314)
T2 construct: N-terminal His-tagged hUBA1
T2 sequence (P22314 2-1058): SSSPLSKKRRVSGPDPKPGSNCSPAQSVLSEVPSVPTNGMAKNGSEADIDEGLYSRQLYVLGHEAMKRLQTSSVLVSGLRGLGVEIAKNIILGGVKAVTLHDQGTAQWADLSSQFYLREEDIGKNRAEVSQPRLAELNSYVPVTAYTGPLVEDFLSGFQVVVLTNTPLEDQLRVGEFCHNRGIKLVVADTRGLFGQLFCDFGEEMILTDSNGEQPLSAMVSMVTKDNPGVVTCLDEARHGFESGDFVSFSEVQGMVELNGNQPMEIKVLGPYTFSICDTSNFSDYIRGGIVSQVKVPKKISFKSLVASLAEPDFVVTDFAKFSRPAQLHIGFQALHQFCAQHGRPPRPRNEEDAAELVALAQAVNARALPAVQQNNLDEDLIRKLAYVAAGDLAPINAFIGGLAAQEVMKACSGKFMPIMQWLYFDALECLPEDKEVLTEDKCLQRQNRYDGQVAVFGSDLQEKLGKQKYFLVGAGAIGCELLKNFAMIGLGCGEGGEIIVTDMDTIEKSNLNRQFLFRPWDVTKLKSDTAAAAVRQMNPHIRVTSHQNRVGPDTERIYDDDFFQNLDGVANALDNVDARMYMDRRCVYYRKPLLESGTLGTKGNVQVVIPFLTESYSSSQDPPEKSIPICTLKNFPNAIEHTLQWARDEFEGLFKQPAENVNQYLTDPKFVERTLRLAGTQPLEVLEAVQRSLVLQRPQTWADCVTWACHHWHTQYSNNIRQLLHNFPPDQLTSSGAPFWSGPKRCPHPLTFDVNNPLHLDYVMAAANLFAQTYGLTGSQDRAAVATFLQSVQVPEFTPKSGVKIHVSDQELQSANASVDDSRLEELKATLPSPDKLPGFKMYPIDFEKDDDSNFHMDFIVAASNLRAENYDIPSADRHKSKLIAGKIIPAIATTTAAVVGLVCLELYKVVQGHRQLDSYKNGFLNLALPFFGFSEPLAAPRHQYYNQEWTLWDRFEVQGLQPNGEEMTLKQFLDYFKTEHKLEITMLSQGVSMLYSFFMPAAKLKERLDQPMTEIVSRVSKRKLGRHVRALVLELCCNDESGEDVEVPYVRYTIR

TbUBA1b [3] = target: T3, TbUBA1b (Trypanosoma brucei, UniProt Q38DE8)
T3 construct: gene Tb09.211.3610; GST fusion cleaved with thrombin
T3 sequence (Q38DE8 1-1214): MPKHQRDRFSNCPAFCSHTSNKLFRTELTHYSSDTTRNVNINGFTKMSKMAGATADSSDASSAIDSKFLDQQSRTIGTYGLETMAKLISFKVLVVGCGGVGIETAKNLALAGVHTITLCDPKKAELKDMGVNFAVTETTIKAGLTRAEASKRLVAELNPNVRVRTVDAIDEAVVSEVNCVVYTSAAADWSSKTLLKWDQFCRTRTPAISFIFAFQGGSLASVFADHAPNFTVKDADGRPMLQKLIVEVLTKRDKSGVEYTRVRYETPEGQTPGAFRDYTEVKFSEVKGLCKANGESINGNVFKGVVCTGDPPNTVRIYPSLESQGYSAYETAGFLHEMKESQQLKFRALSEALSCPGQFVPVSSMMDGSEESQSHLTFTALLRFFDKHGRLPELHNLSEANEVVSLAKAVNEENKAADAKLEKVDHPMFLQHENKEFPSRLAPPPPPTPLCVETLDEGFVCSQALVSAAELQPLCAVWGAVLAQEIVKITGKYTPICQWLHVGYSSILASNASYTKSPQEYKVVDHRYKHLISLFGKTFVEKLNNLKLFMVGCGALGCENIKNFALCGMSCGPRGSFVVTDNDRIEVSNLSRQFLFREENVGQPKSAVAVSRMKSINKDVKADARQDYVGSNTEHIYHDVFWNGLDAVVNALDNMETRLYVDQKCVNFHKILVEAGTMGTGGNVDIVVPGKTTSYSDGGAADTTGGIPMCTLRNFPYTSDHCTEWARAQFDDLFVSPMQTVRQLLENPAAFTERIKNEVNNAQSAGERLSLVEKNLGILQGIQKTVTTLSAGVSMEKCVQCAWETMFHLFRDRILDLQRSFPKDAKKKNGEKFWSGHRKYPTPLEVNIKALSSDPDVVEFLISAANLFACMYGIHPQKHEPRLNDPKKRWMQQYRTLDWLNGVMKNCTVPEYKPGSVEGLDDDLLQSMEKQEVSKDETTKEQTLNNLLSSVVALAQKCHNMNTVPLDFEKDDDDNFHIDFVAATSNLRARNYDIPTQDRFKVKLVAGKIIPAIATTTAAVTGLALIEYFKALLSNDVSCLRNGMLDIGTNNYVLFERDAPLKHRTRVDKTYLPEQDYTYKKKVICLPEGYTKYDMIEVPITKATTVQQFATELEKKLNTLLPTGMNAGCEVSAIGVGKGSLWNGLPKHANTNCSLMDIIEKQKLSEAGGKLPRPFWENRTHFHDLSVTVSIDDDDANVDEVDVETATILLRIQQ

TbUBA1b [4] = target: T4, TbUBA1b (Trypanosoma brucei, UniProt Q38DE8, E656D/T657A)
T4 construct: gene Tb09.211.3610; GST fusion cleaved with thrombin; with ubiquitin

TbUBA1b [5] = target: T5, TbUBA1b (Trypanosoma brucei, UniProt Q38DE8)
T5 construct: gene Tb09.211.3610; GST fusion cleaved with thrombin; with ubiquitin

TbUBA1a [6] = target: T6, TbUBA1a (Trypanosoma brucei, UniProt Q57XC5, E559D/Q534P/S560A)
T6 construct: gene Tb08.26A17.680; GST fusion cleaved with HRV 3C; with ubiquitin
T6 sequence (Q57XC5 whole entry E559D/Q534P/S560A, the tested form may be a part): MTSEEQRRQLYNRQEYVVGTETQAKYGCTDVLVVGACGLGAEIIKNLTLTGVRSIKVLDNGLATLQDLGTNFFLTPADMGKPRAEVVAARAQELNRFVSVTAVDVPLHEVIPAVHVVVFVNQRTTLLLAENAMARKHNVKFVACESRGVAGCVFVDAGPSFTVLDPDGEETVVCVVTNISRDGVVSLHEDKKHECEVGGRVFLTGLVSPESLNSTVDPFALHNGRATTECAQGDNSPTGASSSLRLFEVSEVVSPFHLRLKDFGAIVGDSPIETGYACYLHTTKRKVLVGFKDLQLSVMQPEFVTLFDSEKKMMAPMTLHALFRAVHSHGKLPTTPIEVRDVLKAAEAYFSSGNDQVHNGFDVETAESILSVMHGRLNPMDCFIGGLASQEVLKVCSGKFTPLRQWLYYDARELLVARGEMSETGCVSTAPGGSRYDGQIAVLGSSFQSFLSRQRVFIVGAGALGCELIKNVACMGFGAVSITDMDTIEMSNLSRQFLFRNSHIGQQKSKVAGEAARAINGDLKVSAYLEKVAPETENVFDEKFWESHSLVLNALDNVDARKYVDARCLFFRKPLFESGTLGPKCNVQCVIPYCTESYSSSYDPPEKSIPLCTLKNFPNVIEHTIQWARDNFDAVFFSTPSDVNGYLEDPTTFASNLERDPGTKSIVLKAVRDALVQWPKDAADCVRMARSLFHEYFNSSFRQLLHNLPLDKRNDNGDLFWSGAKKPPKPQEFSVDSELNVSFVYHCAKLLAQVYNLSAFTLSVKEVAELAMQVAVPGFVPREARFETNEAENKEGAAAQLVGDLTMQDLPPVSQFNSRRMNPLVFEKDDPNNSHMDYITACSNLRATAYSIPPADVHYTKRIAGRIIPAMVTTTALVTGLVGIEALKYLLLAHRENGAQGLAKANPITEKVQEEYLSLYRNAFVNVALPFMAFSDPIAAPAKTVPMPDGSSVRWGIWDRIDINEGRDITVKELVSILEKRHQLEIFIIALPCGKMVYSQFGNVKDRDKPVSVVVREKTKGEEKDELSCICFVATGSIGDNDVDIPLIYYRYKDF

T1 sequence (Q57XC5 1-1055): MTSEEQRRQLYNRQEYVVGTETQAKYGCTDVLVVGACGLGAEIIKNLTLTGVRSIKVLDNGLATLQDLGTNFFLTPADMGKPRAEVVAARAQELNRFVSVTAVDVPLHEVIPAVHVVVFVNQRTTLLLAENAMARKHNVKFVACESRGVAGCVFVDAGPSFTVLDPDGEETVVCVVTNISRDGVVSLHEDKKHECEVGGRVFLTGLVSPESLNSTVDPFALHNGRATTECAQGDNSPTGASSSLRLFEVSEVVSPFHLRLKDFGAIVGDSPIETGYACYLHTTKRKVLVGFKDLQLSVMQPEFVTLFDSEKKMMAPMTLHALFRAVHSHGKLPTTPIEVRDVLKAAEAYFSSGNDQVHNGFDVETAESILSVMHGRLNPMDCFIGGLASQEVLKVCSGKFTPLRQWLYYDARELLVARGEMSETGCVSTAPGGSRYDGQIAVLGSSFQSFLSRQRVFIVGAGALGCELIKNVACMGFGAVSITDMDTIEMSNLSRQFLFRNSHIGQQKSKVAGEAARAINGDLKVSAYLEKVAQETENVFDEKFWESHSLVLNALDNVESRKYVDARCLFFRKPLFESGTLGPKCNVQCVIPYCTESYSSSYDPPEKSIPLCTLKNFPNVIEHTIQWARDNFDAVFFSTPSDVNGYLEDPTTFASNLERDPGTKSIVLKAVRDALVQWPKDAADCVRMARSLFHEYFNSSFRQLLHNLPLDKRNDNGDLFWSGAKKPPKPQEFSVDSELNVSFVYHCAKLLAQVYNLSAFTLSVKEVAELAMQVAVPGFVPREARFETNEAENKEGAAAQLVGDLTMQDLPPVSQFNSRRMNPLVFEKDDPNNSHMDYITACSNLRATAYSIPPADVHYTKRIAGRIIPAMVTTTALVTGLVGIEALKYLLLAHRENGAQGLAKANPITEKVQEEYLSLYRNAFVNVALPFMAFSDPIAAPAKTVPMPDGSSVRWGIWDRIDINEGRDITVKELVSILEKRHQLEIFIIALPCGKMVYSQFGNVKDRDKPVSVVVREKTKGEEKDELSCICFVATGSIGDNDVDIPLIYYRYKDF

## CCOC(=O)c1ccc(N2NC(=O)C(=Cc3ccc([N+](=O)[O-])o3)C2=O)cc1 [PYR-41]
TbUBA1a [1]
  E1-E2 transthioesterification assay (UbcH5a, Coomassie gel), recombinant purifie: the TbUBA1s were slightly (~two-fold) more sensitive to PYR-41 than hUBA1
[2]
  E1-E2 transthioesterification assay (UbcH5a, Coomassie gel), recombinant purifie: we observed very little difference between inhibition of human and the T. brucei UBA1s (Fig. 3C)
TbUBA1b [3]
  E1-E2 transthioesterification assay (UbcH5a, Coomassie gel), recombinant purifie: the TbUBA1s were slightly (~two-fold) more sensitive to PYR-41 than hUBA1

## NS(=O)(=O)OC[C@H]1C[C@@H](Nc2ccnc3cc(-c4cccc(SC(F)(F)F)c4)nn23)[C@H](O)[C@@H]1O [TAK-243]
TbUBA1b [4]
  E1-E2 transthioesterification assay (UbcH5a, Coomassie gel), recombinant purifie: The increase in inhibition of the double mutant E656D, T657A was almost as large as that of the triple mutant
TbUBA1b [5]
  IC50: 159 µM
TbUBA1a [6]
  IC50: 12 µM
